Legend:
cyclooxygenase-1 (COX-1) = target: T1, cyclooxygenase-1 (COX-1) (Ovis aries, UniProt P05979); assay: COX fluorescent inhibitor screening assay kit (Cayman), ADHP/resorufin readout; assay type: biochemical
T1 construct: gene PTGS1
T1 sequence (P05979 25-600): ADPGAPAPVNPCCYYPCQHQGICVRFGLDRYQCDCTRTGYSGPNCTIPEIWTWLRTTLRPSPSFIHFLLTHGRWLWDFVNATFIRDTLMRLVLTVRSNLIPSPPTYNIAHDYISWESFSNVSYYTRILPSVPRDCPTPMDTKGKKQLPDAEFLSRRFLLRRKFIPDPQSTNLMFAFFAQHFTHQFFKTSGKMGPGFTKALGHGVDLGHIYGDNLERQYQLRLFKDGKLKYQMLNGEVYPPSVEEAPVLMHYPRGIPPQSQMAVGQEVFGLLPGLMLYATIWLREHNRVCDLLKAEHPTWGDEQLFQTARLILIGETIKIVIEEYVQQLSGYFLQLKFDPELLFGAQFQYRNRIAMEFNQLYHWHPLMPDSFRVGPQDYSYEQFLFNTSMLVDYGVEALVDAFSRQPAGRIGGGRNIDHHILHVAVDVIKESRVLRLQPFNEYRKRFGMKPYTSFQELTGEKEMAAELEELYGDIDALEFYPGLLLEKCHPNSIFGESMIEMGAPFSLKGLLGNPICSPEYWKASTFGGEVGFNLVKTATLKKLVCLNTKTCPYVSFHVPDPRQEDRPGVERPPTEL

cyclooxygenase-2 (COX-2) = target: T2, cyclooxygenase-2 (COX-2) (Homo sapiens, UniProt P35354); assay: as above; assay type: biochemical
T2 construct: gene PTGS2
T2 sequence (P35354 18-604): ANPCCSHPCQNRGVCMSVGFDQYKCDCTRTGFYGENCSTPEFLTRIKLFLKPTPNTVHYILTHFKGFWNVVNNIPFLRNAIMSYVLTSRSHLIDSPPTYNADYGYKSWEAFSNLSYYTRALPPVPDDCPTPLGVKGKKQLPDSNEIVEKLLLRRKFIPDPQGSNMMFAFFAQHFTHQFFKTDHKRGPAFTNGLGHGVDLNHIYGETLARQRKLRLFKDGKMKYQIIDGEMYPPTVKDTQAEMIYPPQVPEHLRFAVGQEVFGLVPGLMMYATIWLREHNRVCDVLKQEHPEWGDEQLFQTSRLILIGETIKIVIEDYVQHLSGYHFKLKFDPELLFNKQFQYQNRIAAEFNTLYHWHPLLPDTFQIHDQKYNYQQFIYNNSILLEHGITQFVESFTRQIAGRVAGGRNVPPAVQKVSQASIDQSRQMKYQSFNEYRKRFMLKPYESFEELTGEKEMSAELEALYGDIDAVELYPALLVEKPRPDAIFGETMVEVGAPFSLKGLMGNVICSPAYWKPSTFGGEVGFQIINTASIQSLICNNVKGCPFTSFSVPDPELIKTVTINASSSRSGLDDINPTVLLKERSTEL

SMILES: COc1cc(O)c2c(c1)CCc1cc(O)ccc1-2 [lusianthridin]
- IC50 (cyclooxygenase-1 (COX-1)): 10.8 ± 1.12 µM
- IC50 (cyclooxygenase-2 (COX-2)): 0.17 µM

— paper PMC8267677, “Inhibitory Mechanisms of Lusianthridin on Human Platelet Aggregation” (International Journal of Molecular Sciences, 2021)
